Tests used:
[1] = Oral bioavailability in Sprague-Dawley rat at 1 mg/kg measured after 24 hrs by LCMS analysis; format: ADME, organism-based; settings: in vivo
[2] = tested on: Human immunodeficiency virus 1; assay: Antiviral activity against HIV1 harboring reverse transcriptase L100I mutant infected in human MT4 cells assessed as reduction in virus-induced cytopathic effect incubated for 5 days by MTT assay; format: functional, organism-based; settings: Human immunodeficiency virus 1, MT4, 120 h
MT4 = assay: Cytotoxicity against human MT4 cells assessed as reduction in cell viability incubated for 5 days by MTT assay; format: functional; settings: MT4, 120 h
[3] = tested on: Human immunodeficiency virus 1; assay: Antiviral activity against HIV1 3B infected in human MT4 cells incubated assessed as reduction in virus-induced cytopathic effect for 5 days by MTT assay; format: functional, organism-based; settings: Human immunodeficiency virus 1, 3B, MT4, 120 h
[4] = Aqueous solubility of compound at 2 mg measured for 24 hrs by HPLC analysis; format: physicochemical; settings: aqueous medium
[5] = tested on: Human immunodeficiency virus 1; assay: Antiviral activity against HIV1 harboring reverse transcriptase Y181C mutant infected in human MT4 cells assessed as reduction in virus-induced cytopathic effect incubated for 5 days by MTT assay; format: functional, organism-based; settings: Human immunodeficiency virus 1, MT4, 120 h
[6] = tested on: Human immunodeficiency virus 1; assay: Antiviral activity against HIV1 harboring reverse transcriptase E138K mutant infected in human MT4 cells assessed as reduction in virus-induced cytopathic effect incubated for 5 days by MTT assay; format: functional, organism-based; settings: Human immunodeficiency virus 1, MT4, 120 h
[7] = biological target: Human immunodeficiency virus type 1 reverse transcriptase (Human immunodeficiency virus 1, UniProt Q72547); assay: Inhibition of recombinant wild type HIV1 reverse transcriptase p66/p51 incubated for 40 mins by picogreen dye-based spectrofluorometric analysis
[8] = tested on: Human immunodeficiency virus 1; assay: Antiviral activity against HIV1 harboring reverse transcriptase K103N mutant infected in human MT4 cells assessed as reduction in virus-induced cytopathic effect incubated for 5 days by MTT assay; format: functional, organism-based; settings: Human immunodeficiency virus 1, MT4, 120 h
[9] = tested on: Human immunodeficiency virus 1; assay: Antiviral activity against HIV1 harboring reverse transcriptase Y188L mutant infected in human MT4 cells assessed as reduction in virus-induced cytopathic effect incubated for 5 days by MTT assay; format: functional, organism-based; settings: Human immunodeficiency virus 1, MT4, 120 h
[10] = Selectivity index, ratio of CC50 for human MT4 cells to EC50 for antiviral activity against HIV1 3B infected in human MT4 cells incubated for 5 days by MTT assay; format: toxicity, cell-based; settings: MT4 cells (uninfected for CC50; HIV-1 3B infected for EC50)
[11] = tested on: Human immunodeficiency virus 1; assay: Ratio of EC50 for etravirine to EC50 for test compound for antiviral activity against HIV1 harboring reverse transcriptase L100I mutant infected in human MT4 cells assessed as reduction in virus-induced cytopathic effect incubated for 5 days by MTT assay; format: functional
[12] = biological target: Human immunodeficiency virus type 1 reverse transcriptase (Human immunodeficiency virus 1) (UniProt Q72547); assay: Ratio of IC50 for nevirapine to IC50 for test compound for recombinant wild type HIV1 reverse transcriptase p66/p51
[13] = tested on: Human immunodeficiency virus 1; assay: Ratio of EC50 for rilpivirine to EC50 for test compound for antiviral activity against HIV1 harboring reverse transcriptase L100I mutant infected in human MT4 cells assessed as reduction in virus-induced cytopathic effect incubated for 5 days by MTT assay; format: functional
[14] = tested on: Human immunodeficiency virus 1; assay: Ratio of EC50 for efavirenz to EC50 for test compound for antiviral activity against HIV1 harboring reverse transcriptase L100I mutant infected in human MT4 cells assessed as reduction in virus-induced cytopathic effect incubated for 5 days by MTT assay; format: functional
[15] = Intrinsic clearance in rat liver microsomes assessed per mg protein at 1 uM measured up to 45 mins in presence of NADPH by LC/MS/MS analysis; format: ADME, Microsome; settings: liver microsomes, read-out: CLH
[16] = Metabolic stability in rat liver microsomes at 1 uM measured up to 45 mins in presence of NADPH by LC/MS/MS analysis; format: ADME, Microsome; settings: liver microsomes
[17] = Intrinsic clearance in human liver microsomes assessed per mg protein at 1 uM measured up to 45 mins in presence of NADPH by LC/MS/MS analysis; format: ADME, Microsome; settings: read-out: CLH
[18] = Metabolic stability in human liver microsomes at 1 uM measured up to 45 mins in presence of NADPH by LC/MS/MS analysis; format: ADME, Microsome

bioavailability [1] [%]	microsomal CLint at 1 µM [15] [µL/min/mg]	half-life at 1 µM [16] [min]	k el at 0.75 h, 1 µM [16] [s⁻¹]	microsomal CLint at 1 µM [17] [µL/min/mg]	k el at 0.75 h, 1 µM [18] [s⁻¹]	SMILES	EC50 [2] [nM]	CC50 (MT4) [nM]	EC50 [3] [nM]	solubility at 24 h [4] [µg/mL]	EC50 [5] [nM]	EC50 [6] [nM]	IC50 [7] [nM]	EC50 [8] [nM]	EC50 [9] [nM]	selectivity ratio at 120 h [10]	Ratio EC50 [11]	Ratio IC50 [12]	Ratio EC50 [13]	Ratio EC50 [14]
32	–	–	–	–	–	Cc1cc(/C=C/C#N)cc(C)c1Nc1ccnc(Nc2ccc(C#N)cc2)n1.Cl [RILPIVIRINE HYDROCHLORIDE]	–	–	–	–	–	–	–	–	–	–	–	–	–	–
–	–	–	–	–	–	Cc1cc(C#N)cc(C)c1Oc1nc(Nc2ccc(C#N)cc2)nc(N)c1Br [ETRAVIRINE]	7.1	> 4610	6.3	< 1	12	6.5	–	–	–	–	–	–	–	–
–	–	–	–	–	–	N#Cc1ccc(Nc2nccc(Nc3c(F)cc(-c4ccc(C#N)cc4)cc3F)n2)cc1	10.8	> 295000	1.3	< 1	6.1	1.9	4.7	2.6	130	> 238000	–	–	–	–
–	–	–	–	–	–	Cc1cc(-c2ccc(C#N)cc2)cc(Cl)c1Oc1ccnc(Nc2ccc(C#N)cc2)n1	< 3.7	> 286000	3.4	–	10.5	6.6	10.8	< 4.3	200	> 86200	2 - 568	21 to 109	2 - 568	2 - 568
–	45	15.4	0.00075	47.4	0.00079	Cc1cc(-c2ccc(C#N)cc2)cc(C)c1Nc1ccnc(Nc2ccc(C#N)cc2)n1	–	–	–	< 1	–	–	–	–	–	–	–	–	–	–

— ChEMBL document CHEMBL4354822, “Ligand-Based Design of Nondimethylphenyl-Diarylpyrimidines with Improved Metabolic Stability, Safety, and Oral Pharmacokinetic Profiles” (J Med Chem, 2019)
